Experimental data taken from PMC10878790 (The Journal of Biological Chemistry, 2024).
Like-named read-outs stand apart in the source and are kept apart here.

Assays:
[1] = mouse, in vivo, iv, 5 mg/kg
[2] = in vitro; conditions: plasma
Protocol: CD1 mouse plasma isolated using acidified citrate dextrose was purchased from BioIVT. Each peptide's dimethyl sulfoxide stock was then mixed into the plasma, resulting in a 2 μM final concentration. An aliquot was immediately collected for a zero time point and quenched with an equal volume of acetonitrile containing 0.2% formic acid and 200 ng/ml tolbutamide IS. […] Samples were withdrawn at specific intervals and processed similarly to the zero time point. The supernatant obtained after vortexing and centrifugation was subjected to LC-MS/MS analysis as previously detailed. A control incubation was performed using 0.9% NaCl (saline).

[3] = Pharmacokinetic studies in CD1 mice; conditions: mouse, in vivo, iv, 5 mg/kg
[4] = system: MDA-MB-231 cells; test: Wound healing assay; assay type: cell-based; conditions: for inhibition of migration: equimolar peptide concentrations, compared to untreated cells
Protocol: (§1) The wound healing assay was performed using two breast cancer cell lines, MDA-MB-231 and MCF-7, and two prostate cancer cell lines, PC-3 and DU-145, to evaluate the antimigratory capacity of the peptides. […] The cells were grown to approximately 80% confluency in 12-well tissue culture plates, and a cell-free area was created by scraping the monolayer. The peptides were added, and the cells were incubated at 37 °C with 5% CO2 for 24 h. Wound closure was assessed by imaging the wounds at 0 and 24 h, and the wound areas were quantified using ImageJ software (https://imagej.net/ij/). In the transwell invasion assay, MDA-MB-231 cells were serum starved for 4 h followed by a pretreatment with increasing concentrations of each peptide in a 0.1% serum-containing DMEM for 24 h. The cells were then trypsinized, resuspended in same media for the second treatment of peptides, and counted. Next, 40,000 cells were resuspended in 0.1% serum containing DMEM and added to the upper chamber of Transwell plates (Corning Life Sciences) with a polyethylene terephthalate membrane (6.4 mm diameter, 8 μm pore size). The bottom chambers were filled with DMEM containing 10% FBS as a chemoattractant. The transwell plates were incubated at 37 °C with 5% CO2 for 24 h to allow the invasion of cells through the membrane. The invaded cells on the lower side of the membrane were fixed with 4% paraformaldehyde for 15 min, followed by a PBS wash. The membrane inserts were further fixed with ice-cold methanol for 20 min and stained with 0.25% (w/v) crystal violet. After incubation, the noninvasive cells on the upper surface of the membrane were gently removed using a cotton swab. Random fields were chosen for imaging, and the number of invaded cells was counted using ImageJ software. The results were expressed as the average number of invaded cells compared with the control.

[5] = in vivo; conditions: female, CD1, mouse, iv, 5 mg/kg
[6] = in vitro; conditions: microsomes
Protocol: An NADPH-regenerating system (1.7 mg/ml NADP, 7.8 mg/ml glucose-6-phosphate, 6 U/ml glucose-6-phosphate dehydrogenase in 2% w/v NaHCO3/10 mm MgCl2) was added for analysis of Phase I metabolism after heating both the regenerating solution and the sample tubes to 37 °C for 5 min in a 37 °C shaking water bath. The incubation was continued and at varying time points after addition of phase I cofactors, the reaction was stopped by the addition of 0.5 ml of acetonitrile containing IS and formic acid such that the final concentration of IS was 100 ng/ml and acid was 0.1%. Time 0 samples were stopped with the acetonitrile solution while still on ice prior to addition of the NADPH regenerating system and compound, which were subsequently added. The samples were incubated for 10 min at room temperature and then spun at 16,100g for 5 min in a microcentrifuge at 4 °C. The supernatant was analyzed by LC-MS/MS. The method described by McNaney et al. was used with modification for determination of metabolic stability half-life by substrate depletion ([59]). A “% remaining” value was used to assess the metabolic stability of a compound over time. The LC-MS/MS peak area of the incubated sample at each time point was divided by the LC-MS/MS peak area of the time 0 (T0) sample and multiplied by 100. The natural Log (LN) of the % remaining of compound was then plotted versus time (in min) and a linear regression curve was plotted going through y-intercept at LN (100).

[7] = system: MDA-MB-231 cells; test: Western blot of MIEN1 signaling pathway proteins; assay type: cell-based; conditions: mean values of immunoblot densitometry
Protocol: Cells were exposed to the peptides and subjected to Western blot analysis with the indicated antibodies. […] Cytoplasmic and nuclear cell lysate extracts of EGF only and EGF plus peptide-treated cells were probed for p65 and p50. Lamin A/C and β-actin were used as nuclear and cytoplasmic loading control respectively. Densitometry was determined with immunoblots (N = 3) and normalized to total protein or β-actin for whole cell lysates and cytoplasmic fraction of peptide-treated MDA-MB-231 cells. In case of nuclear lysates, the immunoblots were normalized with Lamin A/C. Bar graphs are densitometric data (means ± SD). […] EGF concentration: (10 ng/ml); Peptide concentration: 90 μM. EGF, epidermal growth factor; MIEN1, migration and invasion enhancer 1; NF-κB, nuclear factor kappa B.
Western blot analysis was performed according to standard protocols to assess the effects of MIEN1-derived peptides and their analogs on MDA-MB-231 cells and DU-145 cells. Cell lysates were prepared using radioimmunoprecipitation assay buffer and quantified for protein content by bicinchoninic acid method. […] Protein blocking with 5% bovine serum albumin was followed by incubation with primary antibodies specific to various proteins at 4 °C for 8 to 10 h. The membrane was then washed three times in Tris Buffered Saline with Tween 20 and incubated with the appropriate secondary antibody. Protein bands were visualized using the Alpha Innotech chemiluminescent detection system. In case of MDA-MB-231 cells, cytoplasmic and nuclear extracts were isolated to investigate the effects of peptides and/or EGF stimulation. Prior to exposure to the cells, the test peptides (90 μM) were incubated with EGF (10 ng/ml) in media at 4 °C for 15 min. The untreated MDA-MB-231 cells received EGF alone at the same concentration. The isolation of cytoplasmic and nuclear fractions was performed using the Subcellular Protein Fractionation Kit for Cultured Cells from Thermo Fisher Scientific (cat #78840) following the manufacturer's guidelines. For Western blot experiments, 20 μg of purified cytoplasmic and nuclear fraction was used.
Densitometry analysis of Western blot data was conducted using the AlphaView-FluorChem HD2 software of the Alpha Innotech chemiluminescent detection system (https://www.cambridgescientific.com/product/alpha-innotech-fluorchem-hd2-gel-imaging-system). To quantify band intensities, a uniform rectangle was drawn around each band, and background subtraction was applied to determine the total pixel density for each lane. Further calculations, including the determination of the ratio of phosphorylated proteins to total proteins or other loading controls, were carried out using Microsoft Excel. […]

[8] = system: MCF-7; assay type: cell-based; conditions: MTT, 48 hours
Protocol: (§2) MDA-MB-231, MCF-7, DU-145, PC-3, and NIH-3T3 cell lines were procured from the American Type Culture Collection and used within ten consecutive passages to ensure consistent cell behavior. MDA-MB-231, MCF-7, and NIH-3T3 cells were maintained at 37 °C and 5% CO2 in Dulbecco's modified Eagle's medium (DMEM) high glucose (Hyclone) supplemented with 10% fetal bovine serum (FBS) and 1% Antibiotic-Antimycotic (Gibco), while DU-145 and PC-3 cells were grown in RPMI-1640 supplemented with the same concentration of FBS and Antibiotic-Antimycotic. The media was replenished every 2 days. Cells were checked for mycoplasma at regular intervals using a PCR-based Mycoplasma detection kit plasmocin prophylactic (InvivoGen). In all experiments, cells were maintained in serum-free DMEM for 6 h before peptide treatment. Peptide treatment was done in the media containing 0.1% fetal bovine serum for 48 h in all the experiments unless otherwise stated.
(§3) Cell viability was determined by 3-[4,5-dimethylthiazol-2-yl]-2,5 diphenyl tetrazolium bromide (MTT) assay as described earlier ([52]). ProTox-II "Prediction of Toxicity of Chemicals" web server was used for toxicology assessment ([19]). See the Supporting Information for full experimental details.
(§4) Full Experimental Method for Cell Viability Assay:
(§5) Cell viability of murine NIH- 3T3 cells, as well as MDA- MB -231 , MC F-7, PC- 3, and DU-145 cells, wa s assessed through the MT T assay as described previously(1). Approximately
(§6) 5000 cells per well were seeded in a 96-well plate and allowed to incubate overnight for attachment. Following attachment, the growth medium was replaced wit h a fresh medium
(§7) containing serial dilutions of peptides. The cells we re then incubated for 48 hours in a 5% CO2 incubator . After incubation, 10 μl of a 5 mg/mL MT T solution was introduced to each
(§8) well and left to incubate for an additional 2 hours . Subsequently, the entire medium, along wit h the MT T solution, was aspirated, and the remaining formazan crystals were dissolved
(§9) in 200 μl of DMSO. The absorbance was measured at 595 nm using a Biotek Synergy 2 Plate Reader. […]
(§10) ProTox-II "Prediction of Toxicity of Chemicals" we b server was used for toxicology assessment. […]

[9] = system: MDA-MB-231; assay type: cell-based; conditions: MTT, 48 hours
Protocol: as §2, §3, §4, §5, §6, §7, §8, §9, §10

[10] = system: DU-145; assay type: cell-based; conditions: MTT, 48 hours
Protocol: as §2, §3, §4, §5, §6, §7, §8, §9, §10

[11] = system: PC-3; assay type: cell-based; conditions: MTT, 48 hours
Protocol: as §2, §3, §4, §5, §6, §7, §8, §9, §10

[12] = system: PC-3 cells; test: Wound healing assay; assay type: cell-based; conditions: scrambled peptides compared to LA3IK and RP-7 at equivalent concentrations
Protocol: as §1

[13] = system: MCF-7 cells; test: Wound healing assay; assay type: cell-based; conditions: scrambled peptides compared to LA3IK and RP-7 at equivalent concentrations
Protocol: as §1

[14] = system: DU-145 cells; test: Wound healing assay; assay type: cell-based; conditions: scrambled peptides compared to LA3IK and RP-7 at equivalent concentrations
Protocol: as §1

[15] = system: DU-145 cells; test: Quantitative real-time PCR of EMT-related genes; assay type: cell-based; conditions: 48 h, 90 μM; for inhibition of the majority of the genes examined in the PCR analysis: except for SNAIL
Protocol: 18S RNA transcript levels were used for internal control. […] E-cadherin and SNAIL are increased and decreased, respectively, when probed with antibodies specific for these proteins as compared to the untreated. […] Densitometry was determined and normalized to total protein or β-actin. Peptide concentration: 90 μM. All the assays were performed in triplicates and the results are expressed as means ± SD. […] EMT, epithelial-mesenchymal transition; MMP-9, matrix metalloproteinase 9; NF-κB, nuclear factor kappa B.
Total RNA was extracted using the TRIzol reagent (Invitrogen). One microgram of total RNA was used for complementary DNA reverse transcription using the Superscript-III First Strand Synthesis kit (Invitrogen) following the manufacturer's protocol. All real-time PCR reactions were performed in duplicates in a 20 μl volume using SYBR Green Master Mix (Invitrogen) in a Realplex2 Mastercycler ep gradient S thermal cycler (Eppendorf). The PCR program followed for all the primers was an activation at 95 °C for 15 min, followed by 40 cycles of 95 °C for 30 s, 54 °C for 1 min, and 72 °C for 45 s. The reaction was finally put to hold at 4 °C. Subsequently, 18S was used as the reference gene for the mRNA levels. Relative change in gene expression was calculated according to the ΔΔCt method ([53], [54]).

[16] = system: NIH-3T3; assay type: cell-based, murine; conditions: MTT, 48 hours; normal cells
Protocol: as §2, §3, §4, §5, §6, §7, §8, §9, §10

Compound | IC50 [8] [µM] | IC50 [9] [µM] | IC50 [10] [µM] | IC50 [11] [µM] | antimigratory activity in wound healing assay [12] | antimigratory activity in wound healing assay [13] | antimigratory activity in wound healing assay [14] | inhibition of migration [4] | inhibition of the majority of the genes examined in the PCR analysis [15] | IC50 [16] [µM] | also measured
CC[C@@H](C)[C@@H](NC(=O)[C@@H](C)NC(=O)[C@@H](CC(C)C)NC(C)=O)C(=O)N[C@H](C)C(=O)N[C@@H](C(=O)N[C@H](CCCCN)C(N)=O)C(C)C [D-LA3IK] |  |  |  |  |  |  |  |  |  |  | AUC(0-t) [1]: 3400 ng·h/mL; Cmax [1]: 3570 ng/mL; clearance [1]: 24.5 mL/min/kg; half-life [1]: 3.58 h; remaining at 24 h, 2 μM ([2]; CD1, mouse): 75%; half-life ([2]; mouse): > 24 h; Vd [3]: 1.57 L/kg; decrease in cell migration compared to L counterpart ([4]; identical concentrations of D- and L-isomer): 30.2%; MRT [5]: 1.03 h; Tmax [5]: 4.8 min; Vd [5]: 7.58 L/kg; remaining at 2 h, 2 μM ([6]; male, Institute of Cancer Research/CD-1, mouse, pH 7.5): 100%; half-life ([6]; mouse): > 2 h; greater inhibition of FAK phosphorylation than L-peptide counterpart [7]: 34.2%; greater inhibition of SRC phosphorylation than L-peptide counterpart [7]: 48.8%
Ac-LAKAVI-NH2 [LA3IK-SCR] | 133 ± 9.52 | 243 ± 8.16 | 352 ± 7.18 | 319 ± 13.6 | reduced antimigratory activity | reduced antimigratory activity | reduced antimigratory activity | nonsignificant inhibition | statistically nonsignificant inhibition | > 600 | gene expression in Zeb-1 and SNAIL [15]: statistically diminished
Ac-RPPLVIC-NH2 [RP-7 SCR] | 150 ± 10.3 | 156 ± 8.15 | 137 ± 5.98 | 128 ± 11.7 | reduced antimigratory activity | reduced antimigratory activity | reduced antimigratory activity | nonsignificant inhibition | statistically nonsignificant inhibition | > 600 | expression of SLUG and Zeb-1 [15]: reduced expression
